Laboratory results reported in PMC8072159, “5-Bis-(2,6-difluoro-benzylidene) Cyclopentanone Acts as a Selective 11β-Hydroxysteroid Dehydrogenase one Inhibitor to Treat Diet-Induced Nonalcoholic Fatty Liver Disease in Mice” (Frontiers in Pharmacology, 2021).
Entries after “also recorded” stand apart in the source; their conditions may differ.

System: HFD-induced NAFLD mice
Assay: HFD-induced NAFLD mouse model, WZS08 by gavage for 100 days
Format: in vivo
Conditions: for Body weight / Dorsal adipose weight / Epididymal adipose weight / Mesenteric adipose weight / Thymic adipose weight / Total hepatic weight: mean ± SEM
Procedure: The KM mice were randomly divided into six groups, including a regular chow (Group C), HFD (Group M) as a model control group, HFD supplemented with various doses of WZS08, 1 (Group M + W1), 2 (Group M + W2), and 4 (Group + W4) mg/kg, 20 mice per group. Mice were housed five animals per cage. Mice were maintained at a constant temperature (25 ± 3°C) for a 12-h light-dark cycle with free access to food and water. After a week of diet adaptation, the mice were fed with WZS08 dissolved in 1% sodium carboxymethyl cellulose (CMC-Na) or 1% CMC-Na for 100 days alone. Each mouse was gavaged daily with 0.5 ml vehicle (1% CMC-Na) or drug in 1%CMC-Na. By the end of the treatment, the mice were killed by CO2, and the weights of body, liver, epididymal fat, mesenteric fat, and dorsal fat were measured. […]
Quantitative Real-Time Polymerase Chain Reaction
Total RNA was isolated from mouse liver using Trizol kit according to the manufacturer’s instruction. To reduce genomic DNA contamination, total RNAs were treated with ribonuclease-free deoxyribonuclease I (Thermo Fisher Scientific, Waltham, MA, United States) for 1 h at 37°C. 1 μg RNA was used to synthesize the first strand cDNA by reverse transcription kit. qPCR was carried out using SYBR GREEN as an indicator using Bio-Rad real time PCR system. The standard curve method was adopted as previously described ([Lv et al., 2019]). The Ct values were recorded after a series of diluted standards of mouse liver cDNAs, and the linear equation of Ct values vs. logarithm [dilution of standards] was generated, and the concentration of the target mRNA was calculated according to their Ct value. The result was normalized to Gapdh (encoding GAPDH) and Rps16 as the internal controls. The mRNA levels of Acs2 (encoding acetyl-CoA synthetase2), Hsd11b1 (encoding 11β–HSD1), Ldlr (encoding LDLR), Plin2 (encoding PLIN2), and Plin3 (encoding PLIN3) were evaluated. There were no changes in Gapdh and Rps16 mRNA levels between groups and the test mRNA levels were adjusted to Gapdh. Primer information is listed in Supplementary Table S1.
Measurement of Serum Insulin and Corticosterone Levels and Blood Lipid Levels
On the last day of the experiment, the mice were fasted for 6 h (with free access to drinking water), and then blood and tissues were sampled. Blood samples were collected. The blood sample was centrifuged at 5000 rpm for 10 min to collect the serum, and the serum was frozen at -40°C until use. According to standard clinical protocols, the levels of serum glucose, low-density lipoprotein (LDL), high-density lipoprotein (HDL), total cholesterol, and triglyceride (TG) were measured using Hitachi 7600 biochemical analyzer (Hitachi, Japan). In addition, serum insulin and corticosterone levels were evaluated using the ultrasensitive mouse insulin ELISA kit (CrystalChem, IL, USA) and the commercially available corticosterone ELISA kit (Abnova, Taiwan, China) according to the manufacturers’ instructions.
Protein Expression Analysis
Total hepatic protein extract was obtained as previously described ([Lazaro et al., 2013]). The protein was separated by SDS–PAGE and transferred to a 0.2 μm PVDF membrane. The primary antibodies used were: 11β-HSD1 (rabbit polyclonal antibody, Abcam, catalog # ab39364; being blocked with 11β-HSD1 peptide, #ab101097, San Francisco, CA), ACS2 (Abcam, catalog # ab229958, San Francisco, CA, United States), and β-actin (ACTB, Cell signaling, Danvers, MA, United States). Goat anti-rabbit HRP was used as a secondary antibody. Finally, chemiluminescence emitted by the immunoreactive protein was detected by an ECL advance agent, and visualized with a MicroChemi Imaging system and qualified by a densitometry using AlphaEaseFC (ProteinSample, CA, United States). Relative protein levels were normalized by ACTB.
Before hematoxylin and eosin (HE) staining, the livers of KM mice were fixed in 10% formalin, dehydrated, and embedded in paraffin, as previously described ([Andres-Manzano et al., 2015]). […]

[1] = HFD mice, 4 mg/kg (M + W4), 100 days
[2] = HFD mice, 1, 2, and 4 mg/kg, vs Group M, qPCR
[3] = HFD plus 1 mg/kg WZS08 (M + W1), 100 days
[4] = HFD plus 2 mg/kg WZS08 (M + W2), 100 days
[5] = HFD plus 4 mg/kg WZS08 (M + W4), 100 days

## O=C1/C(=C/c2c(F)cccc2F)CC/C1=C\c1c(F)cccc1F [WZS08, (2E,5E)-2,5-bis(2,6-difluorobenzylidene) Cyclopentanone]
HFD mice, 1 mg/kg, 100 days
  Fabp4 expression: up-regulated
  hepatic fat ratio: significantly reduced
  serum cholesterol: significantly reduced
  serum low-density lipoprotein: significantly reduced
  serum triglycerides: significantly reduced
[1]
  serum HDL level: greatly reduced
  serum LDL level: greatly reduced
  serum cholesterol level: greatly reduced
  serum triglyceride level: greatly reduced
HFD mice, 4 mg/kg, 100 days, vs HFD group
  insulin index: significantly lowered
HFD mice, 4 mg/kg, 100 days, vs HFD group, 4 mg/kg
  serum insulin levels: significantly lowered; also recorded: completely reduced it to control level
HFD mice, 1, 2, 4 mg/kg
  liver lipid content (HE staining): remarkably reduced
HFD mice, 1, 2, 4 mg/kg, 100 days
  insulin resistance (HOMA-IR): dose-dependently reduced
HFD mice, 1, 2, 4 mg/kg, 100 days, vs HFD control
  body weight changes: dose-dependently reduced
[2]
  Acs2 expression in liver: up-regulated
  Plin2 expression in liver: down-regulated
HFD mice, 100 days
  morphology of the non-alcoholic fatty liver: significantly improved
HFD mice, doses of 2 and 4 mg/kg
  liver fat content: significantly decreased
HFD mice, liver, 1 mg/kg, 100 days
  Plin2 expression: down-regulated
[3]
  Body weight: 52.46 ± 1.28 g
  Dorsal adipose weight: 0.68 ± 0.092 g
  Epididymal adipose weight: 2.05 ± 0.230 g
  Mesenteric adipose weight: 0.64 ± 0.074 g
  Thymic adipose weight: 0.08 ± 0.01 g
  Total hepatic weight: 2.79 ± 0.12 g
[4]
  Body weight: 50.25 ± 1.01 g
  Dorsal adipose weight: 0.54 ± 0.049 g
  Epididymal adipose weight: 1.52 ± 0.138 g
  Mesenteric adipose weight: 0.55 ± 0.043 g
  Thymic adipose weight: 0.06 ± 0.00 g
  Total hepatic weight: 2.48 ± 0.06 g
[5]
  Body weight: 49.00 ± 1.22 g
  Dorsal adipose weight: 0.55 ± 0.070 g
  Epididymal adipose weight: 1.54 ± 0.20 g
  Mesenteric adipose weight: 0.54 ± 0.048 g
  Thymic adipose weight: 0.077 ± 0.00 g
  Total hepatic weight: 2.29 ± 0.06 g
HFD-treated mice, oral administration
  blood glucose: did not show significant changes
